Measured values published in the supplement of paper PMC11061612.

Tests used:
[1] = tested on: KELLY (Neuroblastoma); assay: Bliss excess, mean over the matrix (fraction); higher = more synergy
How it was run: (§1)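 Bliss excess equals the observed combination effect minus the expected value EA + EB − EA·EB, where EA and EB are the effects of each agent alone. Combination Emax is the second-highest inhibition within the matrix. Inhibition was scaled from CellTiter-Glo 2.0 luminescence, with 0 set by vehicle wells and 1 by blank wells, after 72 hours of two-drug dosing of cells plated in 1536-well plates.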

[2] = tested on: LNCaP-Clone-FGC (Prostate Carcinoma); assay: as above
How it was run: as §1

[3] = tested on: LS-180 (Colorectal Carcinoma); assay: as above
How it was run: as §1

[4] = tested on: ME-1 (Acute Myeloid Leukemia); assay: as above
How it was run: as §1

[5] = tested on: RC-K8 (B-Cell Non-Hodgkin's Lymphoma); assay: as above
How it was run: as §1

[6] = tested on: Ramos-2G6-4C10 (Burkitt's Lymphoma); assay: as above
How it was run: as §1

[7] = tested on: 42-MG-BA (Glioblastoma); assay: combination Emax (second highest fraction inhibited in the dose matrix, 72 h); higher = more inhibition; extreme values may be limits of the assay
How it was run: as §1

[8] = tested on: AGS (Gastric Carcinoma); assay: as above
How it was run: as §1

[9] = tested on: CAL-148 (Breast Carcinoma); assay: as above
How it was run: as §1

[10] = tested on: Calu-3 (Lung Adenocarcinoma); assay: as above
How it was run: as §1

[11] = tested on: Daoy (Other Solid Carcinomas); assay: as above
How it was run: as §1

[12] = tested on: DoTc2-4510 (Cervical Carcinoma); assay: as above
How it was run: as §1

[13] = tested on: HCC-78 (Lung Adenocarcinoma); assay: as above
How it was run: as §1

[14] = tested on: HO-1-N-1 (Oral Cavity Carcinoma); assay: as above
How it was run: as §1

[15] = tested on: HuP-T4 (Pancreatic Carcinoma); assay: as above
How it was run: as §1

[16] = tested on: LNCaP-Clone-FGC (Prostate Carcinoma); assay: as above
How it was run: as §1

[17] = tested on: MDA-MB-361 (Breast Carcinoma); assay: as above
How it was run: as §1

[18] = tested on: NCI-H2085 (Non-Small Cell Lung Carcinoma); assay: as above
How it was run: as §1

[19] = tested on: Ramos-2G6-4C10 (Burkitt's Lymphoma); assay: as above
How it was run: as §1

[20] = tested on: TE-9 (Esophageal Squamous Cell Carcinoma); assay: as above
How it was run: as §1

Structure (SMILES)	Bliss excess [1]	Bliss excess [2]	Bliss excess [3]	Bliss excess [4]	Bliss excess [5]	Bliss excess [6]	combination Emax [7]	combination Emax [8]	combination Emax [9]	combination Emax [10]	combination Emax [11]	combination Emax [12]	combination Emax [13]	combination Emax [14]	combination Emax [15]	combination Emax [16]	combination Emax [17]	combination Emax [18]	combination Emax [19]	combination Emax [20]
CN(C)CCCOc1ccc(-c2ccc3ncc4c(c3c2)n(C2CCOCC2)c(=O)n4C)cn1 [AZD0156] + O=C(c1cc(Cc2n[nH]c(=O)c3ccccc23)ccc1F)N1CCN(C(=O)C2CC2)CC1 [Olaparib] (first compound max 3 µM, partner max 3 µM)	0.0009	0.0755	-0.002	-0.0065	-0.0046	0.0928	0.402	0.392	0.604	0.184	0.427	0.206	0.448	0.346	0.289	0.639	0.384	0.224	0.745	0.353
COc1nnc2ccc(N3CCC(c4ccc(OCCN5CCN(C)C(=O)[C@H]5C)cc4)CC3)nn12 [AZD5153] + CN(CC[C@H](CSC1=CC=CC=C1)NC2=C(C=C(C=C2)S(=O)(=O)NC(=O)C3=CC=C(C=C3)N4CCC(CC4)[C@H](C5=CC=CC=C5C6=CC=C(C=C6)Cl)O)S(=O)(=O)C(F)(F)F)CCO [AZD4320] (first compound max 1 µM, 7x7, partner max 1 µM)		0.0557			-0.0145		0.868	0.918			0.627				0.479	0.747	0.814			
Cc1c2c(nn1C)CSCc1cc(n(C)n1)CSc1cc(c3ccccc3c1)OCCCc1c(C(=O)O)n(C)c3c-2c(Cl)ccc13 [AZD5991] + C1CN(CCC1(C(=O)N[C@@H](CCO)C2=CC=C(C=C2)Cl)N)C3=NC=NC4=C3C=CN4 [Capivasertib] (first compound max 1 µM, 7x7, partner max 3 µM)	0.0246	-0.043	0.0195	0.0415	-0.03	0.0094	1	0.335	1	0.182	0.345	0.355	0.228	0.944	0.351	0.997	0.718	0.262	1	
Cc1cc2ncnn2cc1Nc1ncc2c(n1)n(C1CCOCC1)c(=O)n2C [AZD7648] + C[C@@H]1COCCN1C2=NC(=NC(=C2)C3(CC3)[S@](=N)(=O)C)C4=C5C=CNC5=NC=C4 [AZD6738] (first compound max 10 µM, 7x7, partner max 10 µM)	0.0663	-0.0069	0.0003	-0.0321		0.0129	0.692	0.682	0.828	0.291	0.784	0.746	0.635	0.706	0.358	0.703	0.884	0.608	0.944	0.286
Cc1cc2ncnn2cc1Nc1ncc2c(n1)n(C1CCOCC1)c(=O)n2C [AZD7648] + O=C(c1cc(Cc2n[nH]c(=O)c3ccccc23)ccc1F)N1CCN(C(=O)C2CC2)CC1 [Olaparib] (first compound max 10 µM, 7x7, partner max 10 µM)	-0.0241	-0.0049	-0.0896	-0.004		-0.0281	0.464	0.204	0.255	0.0691	0.357	0.277	0.242	0.324	0.141	0.533	0.406	0.036	0.169	0.119
COc1cccc2c1C(=O)c1c(O)c3c(c(O)c1C2=O)C[C@@](O)(C(=O)CO)C[C@@H]3O[C@H]1C[C@H](N)[C@H](O)[C@H](C)O1 [Doxorubicin] + Cc1cc2ncnn2cc1Nc1ncc2c(n1)n(C1CCOCC1)c(=O)n2C [AZD7648] (first compound max 1 µM, 7x7, partner max 10 µM)	0.0411	0.0417	0.0033	0.027		0.0786	0.925	0.986	1	0.301	0.875	0.844	0.751	0.979	0.657	0.819	0.537	0.546	0.951	0.148
COc1cccc(OCCCN)c1-c1cc(Nc2cnc(C#N)cn2)n[nH]1 [Prexasertib] + C=CCn1c(=O)c2cnc(Nc3ccc(N4CCN(C)CC4)cc3)nc2n1-c1cccc(C(C)(C)O)n1 [AZD1775] (first compound max 1 µM, partner max 1 µM)	0.0252	-0.0172	0.184	0.0408		0.112	0.941	0.901	1	0.482	0.985	0.906	0.793	0.985	0.882	0.846	0.926	0.94	1	0.86
COc1cccc(OCCCN)c1-c1cc(Nc2cnc(C#N)cn2)n[nH]1 [Prexasertib] + CN(C)CCCOc1ccc(-c2ccc3ncc4c(c3c2)n(C2CCOCC2)c(=O)n4C)cn1 [AZD0156] (first compound max 1 µM, 7x7, partner max 1 µM)	0.0113	-0.0374	-0.0605	-0.0167		0.0693	0.937	0.537	0.642	0.409	0.958	0.89	0.685	0.913	0.84	0.827	0.954	0.92	1	0.596
COc1cccc(OCCCN)c1-c1cc(Nc2cnc(C#N)cn2)n[nH]1 [Prexasertib] + C[C@@H]1COCCN1C2=NC(=NC(=C2)C3(CC3)[S@](=N)(=O)C)C4=C5C=CNC5=NC=C4 [AZD6738] (first compound max 1 µM, 7x7, partner max 10 µM)	0.0187	-0.0427	0.0194	0.0637		-0.0191	0.904	0.663	0.895	0.405	0.956	0.88	0.744	0.898	0.808	0.842	0.922	0.872	1	0.481
COc1cccc(OCCCN)c1-c1cc(Nc2cnc(C#N)cn2)n[nH]1 [Prexasertib] + Cc1cc2ncnn2cc1Nc1ncc2c(n1)n(C1CCOCC1)c(=O)n2C [AZD7648] (first compound max 1 µM, 7x7, partner max 10 µM)	-0.0027	-0.0617	-0.0329	-0.0048		0.0025	0.908	0.48	0.734	0.416	0.965	0.86	0.736	0.927	0.839	0.83	0.929	0.825	1	0.516
COc1cccc(OCCCN)c1-c1cc(Nc2cnc(C#N)cn2)n[nH]1 [Prexasertib] + O=C(c1cc(Cc2n[nH]c(=O)c3ccccc23)ccc1F)N1CCN(C(=O)C2CC2)CC1 [Olaparib] (first compound max 1 µM, 7x7, partner max 10 µM)	-0.0742	-0.049	-0.0348	-0.0619		-0.0875	0.908	0.426	0.696	0.381	0.983	0.875	0.718	0.938	0.851	0.851	0.919	0.587	1	0.567
COc1cc2c(cc1OCCCCCOc1cc3c(cc1OC)C(=O)N1C=C(C)C[C@H]1C=N3)N=C[C@@H]1CC(C)=CN1C2=O [SG3199] + O=C(c1cc(Cc2n[nH]c(=O)c3ccccc23)ccc1F)N1CCN(C(=O)C2CC2)CC1 [Olaparib] (first compound max 0.001 µM, 7x7, partner max 10 µM)	0.0142	0.0189	-0.0525	-0.013		-0.0122	0.247	0.248	0.211	0.0759	0.42	0.321	0.101	0.103	0.0469	0.416	0.0847	0.059	0	0.0964
CCc1c2c(nc3ccc(O)cc13)-c1cc3c(c(=O)n1C2)COC(=O)[C@]3(O)CC [SN-38] + CN(C)CCCOc1ccc(-c2ccc3ncc4c(c3c2)n(C2CCOCC2)c(=O)n4C)cn1 [AZD0156] (first compound max 0.3 µM, 7x7, partner max 1 µM)	0.0155	-0.0804	0.0439	-0.008		0.0361	1	0.814	0.912	0.319	1	0.972	0.924	1	0.96	0.76	0.397	0.221	0.98	0.395
C[C@@H](c1ccc2nccn2c1)n1nnc2ncc(-c3cnn(C)c3)nc21 [Savolitinib] + CN(CC[C@H](CSC1=CC=CC=C1)NC2=C(C=C(C=C2)S(=O)(=O)NC(=O)C3=CC=C(C=C3)N4CCC(CC4)[C@H](C5=CC=CC=C5C6=CC=C(C=C6)Cl)O)S(=O)(=O)C(F)(F)F)CCO [AZD4320] (first compound max 1 µM, 7x7, partner max 1 µM)		-0.0205			-0.0478		0.222	0.377			0.139				0.124	0.258	0.114			
